Source: patent US7053160B1, “Metallocene monohalogenides” (Basell Polyolefine GmbH, priority 1998, dated 2006)

Experiment: Solubility comparison in toluene at room temperature
Type: physicochemical
Details: about 50 mg of solid dissolved

Work on `CC1=Cc2c(ccc3ccccc23)[C]12[Si](C)(C)[C]1(C(C)=Cc3c1ccc1ccccc31)[Zr]2([Cl])[O]c1ccc(C(C)(C)C)cc1C(C)(C)C` (stereo not shown) [compound 1, Dimethylsilanediylbis(2-methyl-4,5-benzoindenyl)zirconium monochloride mono(2,4-di-tert-butylphenoxide)] yielded a solubility greater than 13 mM.
For `CC1=Cc2c(ccc3ccccc23)[C]12[Si](C)(C)[C]1(C(C)=Cc3c1ccc1ccccc31)[Zr]2([Cl])[Cl]` (stereo not shown) [dimethylsilanediylbis(2-methyl-4,5-benzoindenyl)zirconium dichloride], the solubility was “about 0.36 mmol/l”.
In the case of `Cc1cc2ccccc2[c-]1[Si](C)(C)[c-]1c(C)cc2ccccc21.[Cl-].[Cl-].[Zr+4]` (stereo not shown) [dimethylsilanediylbis(2-methylindenyl)zirconium dichloride], the solubility is reported as “about 2.1 mmol/l”.
“Dimethylsilanediylbis(2-methylindenyl)zirconium monochloride mono(2,4-di-tert-butylphenoxide) [compound 2]” showed a solubility greater than 15 mM.
